Results on nine sequences are retold here after patent publication US20260250318A1, “COMPOSITIONS AND METHODS FOR CROSSING THE BLOOD BRAIN BARRIER” (VOYAGER THERAPEUTICS, INC., priority 2022, published 2026).

Assay [1] deals with brains, heart, liver, muscle, and DRG of the NHPs. Briefly: Maturation of TTM-001 and TTM-002 capsids, NGS enrichment in NHP tissues. Format: in vivo. The settings on record: relative to AAV9 control. The gist of the method: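 Variants carry mutations within and flanking the loop IV peptide insert: positions 450–466 were triplet-randomized, while positions 449–466 received low-frequency point mutations. The combined pool went into two NHPs, and each peptide was scored by NGS enrichment ratio against AAV9.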

The test system of assay [2] is brain. As to the kind of experiment: Matured TTM-001 and TTM-002 variants, NGS enrichment in mouse brain. Format: in vivo, mice. The settings on record: relative to AAV9 control.
[3] abbreviates: NGS fold-enrichment of matured AAV capsid variants, NHP brain, RNA.
Where [4] appears, read: NGS fold-enrichment, DRG of NHPs.
[5] abbreviates: NGS fold-enrichment, RNA, brain of NHPs.
Where [6] appears, read: NGS fold-enrichment, heart of NHPs.
[7] abbreviates: NGS fold-enrichment, liver DNA of NHPs.
Where [8] appears, read: NGS fold-enrichment, liver RNA of NHPs.
Where [9] appears, read: NGS fold-enrichment, muscle of NHPs.
[10] abbreviates: NGS fold-enrichment, brain of mice.
[11] abbreviates: NGS fold-enrichment of RNA, NHP brain.
The mark [12] stands for this setting: NGS fold-enrichment, NHP liver DNA.
[13] abbreviates: NGS fold-enrichment, NHP liver RNA.
[14] abbreviates: NGS fold-enrichment, NHP muscle.
The mark [15] stands for this setting: NGS fold-enrichment, mouse brain.

For KTDRTSGSPHSKAQNQQT, the “Fold Enrichment relative to AAV9, Brain (NHP)” value in assay [1] (setting [3]) is on record as 56.466 fold. In addition, the “Fold Enrichment relative to AAV9, DRG (NHP)” value in assay [1] (NHP DRG) is 0.000 fold. In addition, the “Fold Enrichment relative to AAV9, Heart (NHP)” value in assay [1] (NHP heart) was determined as 0.000 fold. Moreover, in assay [1] (NHP liver, DNA), the “Fold Enrichment relative to AAV9, Liver DNA (NHP)” value is 0.160 fold. Further, the “Fold Enrichment relative to AAV9, Liver RNA (NHP)” value in assay [1] (NHP liver, RNA) is given as 0.062 fold. Besides, the “Fold Enrichment relative to AAV9, Muscle (NHP)” value in assay [1] (NHP muscle) was 0.000 fold. Further, the “Fold Enrichment relative to AAV9, Brain (Mouse)” value in assay [2] (mouse brain) is 148.498 fold.
With KTINGSGSPHSKAPGLQT, in assay [1] (setting [4]), the “Fold Enrichment relative to AAV9, DRG (NHP)” value came out at 0.007 fold. For the same sequence, the “Fold Enrichment relative to AAV9, Brain (NHP)” value in assay [1] (setting [5]) was determined as 62.043 fold. For the same sequence, the “Fold Enrichment relative to AAV9, Heart (NHP)” value in assay [1] (setting [6]) is 0.000 fold. In assay [1] (setting [7]), the “Fold Enrichment relative to AAV9, Liver DNA (NHP)” value is reported as 0.210 fold. Also, the “Fold Enrichment relative to AAV9, Liver RNA (NHP)” value in assay [1] (setting [8]) turned out to be 0.651 fold. Moreover, the “Fold Enrichment relative to AAV9, Muscle (NHP)” value in assay [1] (setting [9]) came out at 0.005 fold. The “Fold Enrichment relative to AAV9, Brain (Mouse)” value in assay [2] (setting [10]) is reported as 144.610 fold.
Turning to KTVNGHDSPHKSGQNLHT, the “Fold Enrichment relative to AAV9, Brain (NHP)” value in assay [1] (setting [11]) stood at 88.080 fold. Besides, the “Fold Enrichment relative to AAV9, DRG (NHP)” value in assay [1] (NGS fold-enrichment, NHP DRG) was 0.000 fold. In addition, the “Fold Enrichment relative to AAV9, Heart (NHP)” value in assay [1] (NGS fold-enrichment, NHP heart) is 0.080 fold. For the same sequence, in assay [1] (setting [12]), the “Fold Enrichment relative to AAV9, Liver DNA (NHP)” value is 0.039 fold. In assay [1] (setting [13]), the “Fold Enrichment relative to AAV9, Liver RNA (NHP)” value is on record as 0.000 fold. The “Fold Enrichment relative to AAV9, Muscle (NHP)” value in assay [1] (setting [14]) amounted to 0.000 fold. The “Fold Enrichment relative to AAV9, Brain (Mouse)” value in assay [2] (setting [15]) stood at 11.363 fold.
For the sequence KTVNGHDSPHKSGRNQET, the “Fold Enrichment relative to AAV9, Brain (NHP)” value in assay [1] (setting [11]) was 102.695 fold. In assay [1] (NGS fold-enrichment, NHP DRG), the “Fold Enrichment relative to AAV9, DRG (NHP)” value worked out at 0.000 fold. Further, the “Fold Enrichment relative to AAV9, Heart (NHP)” value in assay [1] (NGS fold-enrichment, NHP heart) worked out at 0.286 fold. Besides, the “Fold Enrichment relative to AAV9, Liver DNA (NHP)” value in assay [1] (setting [12]) is 0.027 fold. Also, the “Fold Enrichment relative to AAV9, Liver RNA (NHP)” value in assay [1] (setting [13]) turned out to be 0.000 fold. In addition, the “Fold Enrichment relative to AAV9, Muscle (NHP)” value in assay [1] (setting [14]) is 0.000 fold. Further, in assay [2] (setting [15]), the “Fold Enrichment relative to AAV9, Brain (Mouse)” value was 11.958 fold.
With KTINGPDSPHKIGQNQQS, the “Fold Enrichment relative to AAV9, Brain (NHP)” value in assay [1] (setting [11]) turned out to be 85.726 fold. Also, the “Fold Enrichment relative to AAV9, DRG (NHP)” value in assay [1] (NGS fold-enrichment, NHP DRG) worked out at 0.000 fold. The “Fold Enrichment relative to AAV9, Heart (NHP)” value in assay [1] (NGS fold-enrichment, NHP heart) was found to be 0.055 fold. Moreover, the “Fold Enrichment relative to AAV9, Liver DNA (NHP)” value in assay [1] (setting [12]) was 0.063 fold. Further, in assay [1] (setting [13]), the “Fold Enrichment relative to AAV9, Liver RNA (NHP)” value came out at 0.000 fold. The “Fold Enrichment relative to AAV9, Muscle (NHP)” value in assay [1] (setting [14]) is given as 0.171 fold. The “Fold Enrichment relative to AAV9, Brain (Mouse)” value in assay [2] (setting [15]) was found to be 10.055 fold.
As to KTDKNSGSPHSKAQNQQT, the “Fold Enrichment relative to AAV9, DRG (NHP)” value in assay [1] (setting [4]) amounted to 0.000 fold. The “Fold Enrichment relative to AAV9, Brain (NHP)” value in assay [1] (setting [5]) amounted to 70.964 fold. For the same sequence, in assay [1] (setting [6]), the “Fold Enrichment relative to AAV9, Heart (NHP)” value is recorded as 0.000 fold. Also, the “Fold Enrichment relative to AAV9, Liver DNA (NHP)” value in assay [1] (setting [7]) is reported as 0.123 fold. Further, the “Fold Enrichment relative to AAV9, Liver RNA (NHP)” value in assay [1] (setting [8]) was 0.070 fold. Besides, the “Fold Enrichment relative to AAV9, Muscle (NHP)” value in assay [1] (setting [9]) is 0.000 fold. In assay [2] (setting [10]), the “Fold Enrichment relative to AAV9, Brain (Mouse)” value is 62.932 fold.
As for KTEYISGSPHSKAQNQQT, the “Fold Enrichment relative to AAV9, Brain (NHP)” value in assay [1] (setting [3]) worked out at 57.891 fold. In assay [1] (NHP DRG), the “Fold Enrichment relative to AAV9, DRG (NHP)” value was determined as 0.000 fold. For the same sequence, the “Fold Enrichment relative to AAV9, Heart (NHP)” value in assay [1] (NHP heart) worked out at 0.000 fold. For the same sequence, in assay [1] (NHP liver, DNA), the “Fold Enrichment relative to AAV9, Liver DNA (NHP)” value worked out at 0.075 fold. The “Fold Enrichment relative to AAV9, Liver RNA (NHP)” value in assay [1] (NHP liver, RNA) came out at 0.076 fold. Further, in assay [1] (NHP muscle), the “Fold Enrichment relative to AAV9, Muscle (NHP)” value came to 0.000 fold. Besides, the “Fold Enrichment relative to AAV9, Brain (Mouse)” value in assay [2] (mouse brain) was 57.620 fold.
On to KAINGSGSPHSKAQDKQT, for which, in assay [1] (setting [3]), the “Fold Enrichment relative to AAV9, Brain (NHP)” value came to 54.452 fold. In addition, in assay [1] (NHP DRG), the “Fold Enrichment relative to AAV9, DRG (NHP)” value is on record as 0.000 fold. For the same sequence, in assay [1] (NHP heart), the “Fold Enrichment relative to AAV9, Heart (NHP)” value was 0.000 fold. For the same sequence, the “Fold Enrichment relative to AAV9, Liver DNA (NHP)” value in assay [1] (NHP liver, DNA) is reported as 0.223 fold. Besides, in assay [1] (NHP liver, RNA), the “Fold Enrichment relative to AAV9, Liver RNA (NHP)” value is listed as 0.044 fold. For the same sequence, the “Fold Enrichment relative to AAV9, Muscle (NHP)” value in assay [1] (NHP muscle) is reported as 0.057 fold. In assay [2] (mouse brain), the “Fold Enrichment relative to AAV9, Brain (Mouse)” value is 56.004 fold.
With KTINGSGSPHSKNQWQQT, the “Fold Enrichment relative to AAV9, Brain (NHP)” value in assay [1] (setting [3]) came to 50.800 fold. Further, the “Fold Enrichment relative to AAV9, DRG (NHP)” value in assay [1] (NHP DRG) is on record as 0.000 fold. Moreover, the “Fold Enrichment relative to AAV9, Heart (NHP)” value in assay [1] (NHP heart) was determined as 0.044 fold. In addition, the “Fold Enrichment relative to AAV9, Liver DNA (NHP)” value in assay [1] (NHP liver, DNA) is 0.324 fold. In addition, the “Fold Enrichment relative to AAV9, Liver RNA (NHP)” value in assay [1] (NHP liver, RNA) amounted to 0.111 fold. Besides, the “Fold Enrichment relative to AAV9, Muscle (NHP)” value in assay [1] (NHP muscle) came to 0.047 fold. In addition, in assay [2] (mouse brain), the “Fold Enrichment relative to AAV9, Brain (Mouse)” value was determined as 65.506 fold.
